Test results from patent US7112680B2, “Heterocyclic hydrazones for use as anti-cancer agents” (Austria Wirtschaftsservice Gesellschaft MIT Beschrankter …, priority 2000, dated 2006).
Like-named read-outs stand apart in the source and are kept apart here. Each block holds one compound with its values, some of them ahead of it.

Key:
[1] = system: HeLa (epitheloid cervix carcinoma); assay: Inhibition of tumor cell growth, SRB-assay, HeLa; format: cell-based, human
[2] = system: human tumor grafts (cell lines of FIG. 1); assay: Colony forming assay (two-layer soft agar); format: cell-based; details: for tumor type selectivity: IC70 pattern, FIG. 1; for IC50 / IC90 / Mean IC70: mean values of all cell lines tested in FIG. 1, continuous exposure 3 to 6 days
Experimental: An excellent correlation of drug response in patients and the colony forming assay has been found (Scholz et al, Eur. J. Cancer 25:901–905, 1990). Solid human tumors were grown as grafts in nude mice, removed from the latter, mechanically comminuted and subsequently incubated in an enzyme cocktail consisting of collagenase (1.2–1.8 U/ml), DNAse (375 U/ml) and hyaluronidase (29 U/ml) in RPMI 1640 medium at 37° C. for 30 minutes. The cell mixture was passed through sieves of 200 μm and 50 μm mesh size and washed thereafter twice with PBS (phosphate buffered saline). The percentage of live cells was determined using a Neubauer counting chamber and trypan blue staining.
The colony forming assay was performed according to a two-layer agar technique introduced and modified by Hamburger and Salmon (Hamburger and Salmon, Science, 197:461–463, 1977). The bottom layer consisted of 0.2 ml of Iscoves's Modified Dulbecco's medium with 20% fetal calf serum and 0.75% agar. 8×10^3 to 1.6×10^4 cells were added to the same medium and 0.4% agar and plated in 24-multiwell plates onto the base layer. One day after the plating (with continuous exposure), the substances were added in 0.2 ml medium. Each plate included six controls containing the solvent only, and the treated groups contained 6 concentrations of the substances, each in triplicate. Cultures were incubated at 37° C. and 7% CO2 in a water-saturated atmosphere for 3 to 6 days, depending on the doubling time of the tumor cells. At the time of maximum colony formation with a size of […], counts were performed with an automatic image analysis system. 24 h prior to counting, live colonies were stained with a sterile aqueous solution of 2-(4-iodophenyl)-3-(4-nitrophenyl)-5-phenyltetrazolium chloride (1 mg/ml, 100 μl/well). The results of the tests are given in FIG. 1, and in the following Table 5, respectively. […] Columns pointing towards the right show a slighter than average activity.

[3] = system: Burkitt's lymphoma (CA 46, ATCC No. CRL 1648); assay: Inhibition of tumor cell growth, MTT-assay, Burkitt's lymphoma; format: cell-based, human
Experimental: (§1) The KB cell lines were grown in Dulbecco's modified Eagle's medium (4,5 g glucose/l). To the cultures of KB-C1 cells 1 μg of colchicine/ml, and to the hydroxyurea-resistant KB-HU cells 1 mM hydroxyurea was added every other week. […] 3,000 - 10,000 cells in 200 μl medium were seeded per well into 96-well plates. […] Approximately 10,000 cells per 100 μl were seeded in 96-well plates. […] The substances were dissolved in dimethylsulfoxide (DMSO). […] Subsequently, the samples were fixed, washed, and the absorption was determined by a microplate reader.

[4] = system: K562 (chronic myelogenous leukemia); assay: Inhibition of tumor cell growth, K562; format: cell-based, human; details: 72 hours
Experimental: (§2) In order to obtain information about the growth-inhibiting action on tumor cells, the inhibition of the growth of the following human tumor cells was determined: Burkitt's lymphoma (CA 46, ATCC No. CRL 1648), CCRF-CEM (acute lymphoblastic leukemia, ATCC No. CCL 119), K562 (chronic myelogenous leukemia, ATTC No. CCL 243), HeLa (epitheloid cervix carcinoma, ATCC No. CCL 2), MEXF 276L (melanoma), HT-29 (colon adenocarcinoma, ATCC No. HTB 38), KB-3-1 (human oral epidermoid carcinoma, CTCC No. CCL 17), KB-HU hydroxyurea-resistant, multidrug-resistant KB-C1 cells (Akiyama et al, Cell. Mol Genet., 11:117–126, 1985). Burkitt's, CCRF-CEM, HeLa and MEXF 276L cells were grown in RPMI 1640, HT-29 cells in McCoy's 5A medium. The KB cell lines were grown in Dulbecco's modified Eagle's medium (4,5 g glucose/l). To the cultures of KB-C1 cells 1 μg of colchicine/ml, and to the hydroxyurea-resistant KB-HU cells 1 mM hydroxyurea was added every other week. The media were supplemented with 10% fetal calf serum (except Burkitt's lymphoma cells with 15%), 2 mM glutamine, 50 units/ml penicillin and 50 μg/ml streptomycin. Inhibition of growth of HeLa, HT-29, KB and MEXF 276L cells was detected by the SRB-assay (Skehan et al, J. Natl Cancer Inst., 82:1107–1112, 1990). 3,000 - 10,000 cells in 200 μl medium were seeded per well into 96-well plates. Dose-response curves for CCRF-CEM and Burkitt's lymphoma cells were effected by an MTT-assay (Mosman, J. Immunol Methods, 65:55–63, 1983) from Boehringer Mannheim, Mannheim, Germany. Approximately 10,000 cells per 100 μl were seeded in 96-well plates. After an initial incubation of four hours, various substance concentrations were added, and the cells were incubated at 37° C. in a water-saturated atmosphere of 95% air and 5% CO2 for 72 hours. The substances were dissolved in dimethylsulfoxide (DMSO). The concentration of DMSO was 0.5%, and this was not toxic to the cells. Subsequently, the samples were fixed, washed, and the absorption was determined by a microplate reader.

[5] = system: HT-29 (colon adenocarcinoma); assay: Inhibition of tumor cell growth, SRB-assay, HT-29; format: cell-based, human
Experimental: as §1

[6] = system: Burkitt's lymphoma cells; assay: Apoptosis determination with propium iodide; format: cell-based, human; details: for apoptotic cells: twice the IC50 concentrations, 48 hours, non-treated cells 1.7%
Experimental: In non-treated Burkitt's lymphoma cells, an average of 1.7% are apoptotic. […] The determination of the apoptosis was performed with propium iodide (Nicoletti et al., Rapid and Simple Method for Measuring Thymocyte Apoptosis by Propium Iodine Staining and Flow Cytometry, J. Immunol. Methods, 139, 271–279, 1991).

[7] = system: KB-3-1 (human oral epidermoid carcinoma); assay: Inhibition of tumor cell growth, SRB-assay, KB-3-1; format: cell-based; details: Table 4, 72 hours, read-out: In vitro-activity against human tumor cell lines, KB-3-1
Experimental: as §2

[8] = system: KB-HU hydroxyurea-resistant cells; assay: Inhibition of tumor cell growth, SRB-assay, KB-HU; format: cell-based, human; details: Table 4, 72 hours, read-out: In vitro-activity against human tumor cell lines, KB-HU
Experimental: as §2

[9] = system: multidrug-resistant KB-C1 cells; assay: Inhibition of tumor cell growth, SRB-assay, KB-C1; format: cell-based, human; details: Table 4, 72 hours, read-out: In vitro-activity against human tumor cell lines, KB-C1
Experimental: as §2

[10] = Table 3, 72 hours, read-out: IC50 HeLa (converted)
[11] = Table 3, 72 hours, read-out: IC50 Burkitts
[12] = Table 3, 72 hours, read-out: IC50 HT-29 (converted)
[13] = Table 1, 72 hours, read-out: IC50 HeLa (converted)
[14] = Table 1, 72 hours, read-out: IC50 HT-29 (converted)
[15] = Table 1, 72 hours, read-out: IC50 Burkitts

Structure (SMILES): NC(=O)NO [hydroxyurea, reference compound]
apoptotic cells [6]: 7.3%
in vitro anti-tumor activity against human cancer cells (in words) ([2]; colony forming assay, Table 5 / FIG. 1): far lower than that of the compounds according to the invention

Structure (SMILES): CC(=NNc1nc2ccccc2n1C)c1cc(N(C)C)ccn1 [Id-12]
IC50 ([1]; Table 4, 72 hours, read-out: In vitro-activity against human tumor cell lines, HeLa): 3740 nM
IC50 [7]: 2280 nM
induction of apoptosis (in words) ([6]; tumor cells): capable of inducing apoptosis
apoptotic cells [6]: 60%
IC50 [8]: 50 nM
IC50 ([3]; Table 4, 72 hours, read-out: In vitro-activity against human tumor cell lines, Burkitts): 2210 nM
IC50 [9]: 810 nM
IC50 ([5]; Table 4, 72 hours, read-out: In vitro-activity against human tumor cell lines, HT-29): 5070 nM

Structure (SMILES): Cn1c(NN=C(c2ccccn2)c2ccccn2)nc2ccccc21 [Ia-37]
IC50 [1, 13]: 90 nM
IC50 ([4]; Table 1): 30 nM
IC50 [5, 14]: 4640 nM

Structure (SMILES): CC(=NNc1nc2ccccc2n1-c1ccccc1)c1ccccn1 [Ic-7, 1-(2-Pyridyl)-1-ethanone-1-(1-phenyl-1H-benzo[d]imidazol-2-yl)-hydrazone]
IC50 ([1]; Homo sapiens, HeLa, Table 3, 72 hours, read-out: IC50 HeLa (converted)): 50 nM
IC50 ([2]; Homo sapiens): 760 nM
IC90 ([2]; Homo sapiens): 6300 nM
Mean IC70 [2]: 1.741 µM
IC50 ([3]; Homo sapiens, CA46, Table 3, 72 hours, read-out: IC50 Burkitts): 3480 nM
IC50 ([4]; Homo sapiens, K562, Table 3): 700 nM
IC50 ([5]; Homo sapiens, HT-29, Table 3, 72 hours, read-out: IC50 HT-29 (converted)): 100 nM

The next lines start with results.

IC50 [1, 10]: 10 nM
IC50 [2]: 214 nM
IC90 [2]: 3330 nM
IC50 [3, 11]: 980 nM
IC50 ([4]; Table 3): 180 nM
IC50 [5, 12]: 12800 nM
Structure (SMILES): C=CCn1c(NN=C(C)c2ccccn2)nc2ccccc21 [Ic-5]
tumor type selectivity ([2]; colony forming assay): selectivity for colon, breast, ovarian, and uterus tumors
Mean IC70 [2]: 0,607 μM

IC50 [1, 13]: 6 nM
IC50 [2]: 188 nM
IC90 [2]: 3770 nM
IC50 ([4]; Table 1): 50 nM
IC50 [5, 14]: 5580 nM
Structure (SMILES): CC(C)C(=NNc1nc2ccccc2n1C)c1ccccn1 [Ia-16]
tumor type selectivity ([2]; colony forming assay): selectivity for colon, breast, ovarian, and uterus tumors
Mean IC70 [2]: 0.521 µM

IC50 [1, 10]: 210 nM
IC50 [3, 11]: 1280 nM
IC50 ([4]; Table 3): 120 nM
IC50 [5, 12]: 35100 nM
Structure (SMILES): CCCn1c(NN=C(C)c2ccccn2)nc2ccccc21 [Ic-2]

IC50 [1, 13]: 20 nM
IC50 [3, 15]: 1010 nM
IC50 ([4]; Table 1): 90 nM
IC50 [5, 14]: 11000 nM
Structure (SMILES): CCC(=NNc1nc2ccccc2n1C)c1ccccn1 [Ia-8]

IC50 [1, 13]: 530 nM
IC50 [2]: 15 nM
IC90 [2]: 231 nM
IC50 [3, 15]: 8430 nM
IC50 ([4]; Table 1): 1680 nM
IC50 [5, 14]: > 100000 nM
Structure (SMILES): Cn1c(NN=C(c2ccccn2)C(C)(C)C)nc2ccccc21 [Ia-20]
Mean IC70 [2]: 0.064 µM
